# According to patent EP4455142A1, “NOVEL INHIBITOR OF QPCTL AND/OR QC” (Scenic Immunology B.V., priority 2023, dated 2024):
# Assays:
# pyroglutamylated CD47 = experiment: Assay 3 - cell-based potency assay (pyroglutamylation in live cells, total CD47/pE-CD47 dual staining, FACS); design: species or system human; conditions: IC50 of CC2C6 signal, KBM7 cells, 72 hours incubation
# Procedure: Cells were spun for 4 minutes at 1500 rpm and washed once with PBS / 0.5% BSA. Cells were spun down again and the supernatant was removed and incubated in 100 uL antibody staining solution (PBS / 0.5% BSA / 0.1 µg/mL DAPI (4',6-diamidino-2-phenylindole, ThermoFisher Scientific) and a mixture of 1:500 FITC-conjugated anti-human CD47 clone 2D3, which recognizes total CD47 irrespective of its pyroglutamylation state, and 1:500 Alexa647-conjugated anti-human CD47 clone CC2C6, which specifically detects pyroglutamylated CD47) for 2 hours at 4°C. Next, the cells were spun down and washed twice with 2 x 150 µL PBS / 0.5% BSA to remove unbound antibody. Cells were again spun down and taken up in 300 µL FACS buffer before analysis on a Celesta FACS machine (BD Biosciences).
# KBM7 cells (Kotecki et al., 1999) were infected with lentivirus produced by transfecting pSCNC-LentiCRISPR-QPCTL or pSCNC-LentiCRISPR-CD47 into HEK-293T cells according to standard protocols. After 24 hours incubation, cells were selected with puromycin (Invivogen, 1 µg/mL) for 48 hours. Cells were stained for total CD47 and pE-CD47 and QPCTL k.o. cells were sorted out as negative for pE-CD47, and CD47 k.o. cells as negative for total CD47, using a FACSAria III and FACS Diva software (BD Biosciences).
# In order to test compounds for their effect on pyroglutamylation in live cells, 25000 KBM7 cells per well were seeded in a 96-well U-bottom plate in 150 µl IMDM / 10% FCS / 1% Pen / Strep medium and a 10-point 2-fold dilution range of test compounds. After 72 hours incubation at 37°C, 5% COz, cells were stained for total CD47 and pE-CD47 and analysed on a BD Celesta using FACS Diva software (BD Biosciences). Cells gated for DAPI negativity were recorded and the median fluorescence intensity (MFI) of each sample was transformed to linearly scale between the MFI's of wildtype and CD47 knockout cells (in case of the 2D3 antibody) and the wildtype and QPCTL knockout cells (in case of the CC2C6 antibody). ICso's were calculated by 3 parameter logistic regression of the CC2C6 signal vs. compound concentration, where the top of the sigmoidal curve was fixed at 1, using R and the drc package (http://www.r-project.org, https://cran.r-project.org/web/packages/drc/index.html).
# [1] = CACO-2-based cell-permeation and efflux; assay type: in vitro ADME; conditions: human, 2 µM compound, pH 7.40; for Papp A→B at 2 h, 2 µM: Caco-2, pH 7.4, A2B; for Papp B→A at 2 h, 2 µM: Caco-2, pH 7.4, B2A
# Procedure: CACO-2 (ATCC, Manassas, VA, USA) monolayers on polyethylene membranes in 96-well insert plates were incubated for 2 hours in 5% C02, 37°C with 2 µM compound tested bidirectionally in duplicate using HBSS with 10 mM HEPES at pH 7.40 ±0.05 as transport buffer. Final DMSO Concentrations were adjusted to less than 1%. All samples were mixed with acetonitrile containing internal standard and centrifuged at 3220 x g for 10 minutes. Subsequently, 100 µL supernatant solution was diluted with 100 µL distilled water for LC/MS/MS analysis. Lucifer yellow rejection assays were applied after the transport assay to ensure CACO-2 cell monolayer integrity.
# The apparent permeability coefficient Papp (cm/s) was calculated using the equation: Papp = (dCr/dt) × Vr/(A×CO) [formula] where dCr/dt is the cumulative concentration of compound in the receiver chamber as a function of time (µM/s); Vr is the solution volume in the receiver chamber (0.075 mL on the apical side, 0.25 mL on the basolateral side); A is the surface area for the transport, i.e., 0.0804 cm^2 or the area of the monolayer; CO is the initial concentration in the donor chamber (µM).
# [2] = Microsomal stability, mouse (MLM); assay type: in vitro ADME, CD-1 mouse; conditions: mouse liver microsomes, 0.5 mg protein/mL, 1 µM test compound
# Procedure: In order to assess metabolic stability of test compounds, commercially acquired CD-1 mouse liver microsome preparations were incubated in 100 µL at a final concentration of 0.5 mg protein/mL, 1 µM test compound, 0.99% methanol and 0.01% DMSO, after a 10 minute pre-incubation at 37°C and addition of 0.1 volumes 10 U/mL NADPH in 10 mM MgCl2. Reactions were stopped by addition of 300 µL cold acetonitrile containing internal standards at t = 0, 5, 10, 20, 30, and 60 minutes. Samples were submitted to LC-MS/MS analysis subsequently and the slope of linear regression of time versus In(% Remaining concentration) was derived to calculate t½ as t½= In(2) /(-Slope). Then Clint(mic) and Clint(liver) were calculated as follows: CLint(mk) = (0.693)/(In vitro T1/2) · (1)/(mg/mL microsomal protein in reaction system) [formula] CLint(liver) = CLint(mic) · (mg microsomes)/(g liver) · (g liver)/(kg body weight) [formula]
# Where 45 mg microsomal protein/g liver and 88 g liver/kg mouse bodyweight were used as standardized parameters for mouse microsomes.
# Kinetic solubility = assay type: physicochemical; conditions: aqueous buffer; 50 mM phosphate buffer (pH 7.4), 24 hours at room temperature
# Procedure: To assess the solubility of test compounds 10 µL of a 10 mM solution in DMSO was added to the lower chamber of a whatman miniuniprep (PTFE Filter Media with Polypropylene Housing) vial. 490 µL of 50 mM phosphate buffer (pH 7.4) was added to the lower chamber, the samples were vortexed for at least two minutes and then shaken on a shaker for 24 hours at room temperature at the speed of 880 rpm. The samples were then centrifuged for 20 minutes at 4000 rpm, compressed and the filtrates were injected into a HPLC-UV and LC-MS/MS system to calculate the concentration compared to the standard curve using a ACQUITY UPLC BEH C18 1.7 µm 2.1 * 50 mm column.
SMILES,IC50 (pyroglutamylated CD47) [nM],"Papp A→B at 2 h, 2 µM [1] [nm/s]","Papp B→A at 2 h, 2 µM [1] [nm/s]",CLint scaled at 1 µM [2] [L/h/kg],solubility at 24 h (Kinetic solubility) [µM],"IC50 (pyroglutamylated CD47; Homo sapiens, KBM-7, 72 h) [nM]"
"O=C1OCC(c2ccc(N3CCCC3)cc2)N1c1ccc2[nH]cnc2c1 (single isomer, unassigned) [(18)-ent2]",3490,28,188,29.3,60,
"O=C1OCC(c2ccc(C3CCC(F)(F)CC3)cc2)N1c1ccc2[nH]cnc2c1 (single isomer, unassigned) [(19)-ent2]",3730,39,239,20.4,42,
O=C1OC[C@H](c2ccc(-c3cnn(C(F)(F)F)c3)cc2F)N1c1ccc2[nH]cnc2c1 [Compound (1)],,20,219,4.05,121,92.1
